Test results: patent publication US11833129B2, “Thiophene compound for treatment of exfoliating glaucoma” (Avoscience, LLC, priority 2013, dated 2023)

Experiments:
silkworm larvae, B. mori = conditions: concentrations in the diet up to 300 μg/g; cited from earlier work
[1] = system: Bacillus subtilis (Ehrenberg) Cohn; conditions: cited from earlier work
[2] = system: Staphylococcus aureus Rosenbach; conditions: cited from earlier work
[3] = system: MDA-MB231 invasive breast tumor cells; test: Membrane Invasion Culture System (MICS) chamber tumor cell migration; type: cell-based, human; conditions: 5 or 10 μl/10 ml Formula I(n), 24 hours, vs untreated and methanol controls
Procedure: FIG. 1A is graph of cell migration using the breast cancer cell line MDA-MB231 for cells treated with 0 μl/10 ml, 5 μl/10 ml and 10 μl/10 ml Formula I(n). The effect of Formula I(n) on the migration of MDA-MB231 invasive breast tumor cells was tested using the Membrane Invasion Culture System (MICS) chamber. The Membrane Invasion Culture System (MICS) chamber was assembled with Crosstex 10 μm polycarbonate membrane pre-soaked in gelatin for 12 hours. The lower wells were fully loaded with DMEM supplemented with 10% FBS and 0, 5, 10 μl/10 ml Formula I(n) diluted in 0-20 μl/10 ml methanol. The upper wells were loaded with 1 ml serum-free phenol-red-free media and corresponding Formula I(n)/methanol solution. 100,000 cells/well were loaded and the chamber was incubated at 37° C. for 24 hours. […] The membrane was rinsed in water, placed onto a microscope slide pre-treated with immersion oil, covered with a coverslip and cells were counted under a light microscope. Each sample was measured in triplicate. […]
The Membrane Invasion Culture System (MICS) chamber was assembled with Crosstex 10 μm polycarbonate membrane pre-soaked in gelatin for 12 hours. […] The membrane was rinsed in water, placed onto a microscope slide pre-treated with immersion oil, covered with a coverslip and cells were counted under a light microscope. Each sample was measured in triplicate.

[4] = system: Hs578T invasive breast tumor cells; test: as above; type: cell-based, human; conditions: 5 or 10 μl/10 ml Formula I(n), 24 hours, vs untreated and methanol controls
[5] = system: foreskin fibroblasts (Clonetics); test: in vitro scratch assay, fibroblast migration; type: cell-based
Procedure: FIG. 2A is a micrograph of an in vitro scratch assay using fibroblasts showing the migration of fibroblasts at 0 hours without treatment of Formula I(n). Confluent cultures of foreskin fibroblasts (Clonetics) were scratched with the tip of a 200 μl pipet tip, rinsed once with PBS and media was changed to serum free media containing 0 μl/10 ml Formula I(n). Pictures were taken at the indicated time (0, 12, or 24 hours) following scratching and the distance between the migrating lips were measured in pixels. FIG. 2B is a micrograph of an in vitro scratch assay using fibroblasts showing the migration of fibroblasts at 0 hours upon treatment with 5 μl/10 ml Formula I(n). […]
FIG. 3 is a graph of the distance between the migrating lips (as measured in pixels) vs. the time (hours) after administration of Formula I(n). […]
Confluent cultures of foreskin fibroblasts (Clonetics) were scratched with the tip of a 200 μl pipet tip, rinsed once with PBS and media was changed to serum free media containing 0 (FIG. 2A, 2D, 2G) 5 (FIG. 2B, 2E, 2H) or 10 (FIG. 2C, 2F) μl/10 ml Formula I(n). Pictures were taken at 0 (FIG. 2A, 2B, 2C), 12 (FIG. 2D, 2E, 2F) or 24 (FIG. 2G, 2H) hours following scratching and the distance between the migrating lips were measured in pixels. FIG. 3 is a graph of the distance between the migrating lips (as measured in pixels) vs. the time (hours) after administration of Formula I(n).

[6] = system: preconfluent neonatal foreskin fibroblast cells; test: cytoskeletal reorganization, phalloidin/propidium iodide staining; type: cell-based; conditions: pre-confluent fibroblasts; 5 or 10 μl Formula I(n); 24 hours; compared to controls
Procedure: (§1) FIG. 4A is a micrograph of preconfluent neonatal foreskin fibroblast cells that have not been treated with Formula I(n). After 24 hours of mock treatment, cells were stained with phalloidin (actin-green) and propidium iodide (nuclei-red). FIG. 4B is a micrograph of preconfluent neonatal foreskin fibroblast cells that have been treated with 5 μl/10 ml Formula I(n). After 24 hours of treatment, cells were stained with phalloidin (actin-green) and propidium iodide (nuclei-red). FIG. 4C is a micrograph of preconfluent neonatal foreskin fibroblast cells that have been treated with 10 μl/10 ml Formula I(n). After 24 hours of treatment, cells were stained with phalloidin (actin-green) and propidium iodide (nuclei-red). FIG. 4D is a micrograph of confluent MDA-MB231 breast cancer cells that have not been treated with Formula I(n). After 24 hours of mock treatment, cells were stained with phalloidin (actin-green) and propidium iodide (nuclei-red). FIG. 4E is a micrograph of confluent MDA-MB231 breast cancer cells that have been treated with 5 μl/10 ml Formula I(n). After 24 hours of treatment, cells were stained with phalloidin (actin-green) and propidium iodide (nuclei-red). FIG. 4F is a micrograph of confluent MDA-MB231 breast cancer cells that have been treated with 10 μl/10 ml Formula I(n). After 24 hours of treatment, cells were stained with phalloidin (actin-green) and propidium iodide (nuclei-red). FIG. 4G is a micrograph of preconfluent MDA-MB231 breast cancer cells that have not been treated with Formula I(n). After 24 hours of mock treatment, cells were stained with phalloidin (actin-green) and propidium iodide (nuclei-red). FIG. 4H is a micrograph of preconfluent MDA-MB231 breast cancer cells that have been treated with 5 μl/10 ml Formula I(n). After 24 hours of treatment, cells were stained with phalloidin (actin-green) and propidium iodide (nuclei-red).
Formula I(n) was next analyzed for its ability to induce cytoskeletal reorganization. […]

[7] = system: MDA-MB231 breast cancer cells; test: cytoskeletal reorganization and cell density, phalloidin/propidium iodide staining; type: cell-based, human; conditions: 24 hours
Procedure: as §1, with “After 24 hours of treatment, cells were stained with phalloidin (actin-green) and propidium iodide (nuclei-red). FIG. 4G is a micrograph of preconfluent MDA-MB231 breast cancer cells that have not been treated with Formula I(n). After 24 hours of mock treatment, cells were stained with phalloidin (actin-green) and propidium iodide (nuclei-red). FIG. 4H is a micrograph of preconfluent MDA-MB231 breast cancer cells that have been treated with 5 μl/10 ml Formula I(n). After 24 hours of treatment, cells were stained with phalloidin (actin-green) and propidium iodide (nuclei-red).” left out

[8] = system: focal adhesion kinase (FAK) [Tyr576] phosphorylation; test: western blot of FAK[Tyr576] phosphorylation in Hs578T cells; type: cell-based, human; conditions: 5 or 10 μl Formula I(n)/10 ml media, 3 days
Source text: FIG. 5 is a western blot showing the inhibition of the phosphorylation of focal adhesion kinase (FAK) in Hs578T cells treated with Formula I(n). Antibodies that detect the FAK protein that has been phosphorylated on pTyr576 were used at a dilution of 1:1000 (rabbit anti-FAK[pTyr576] from Biosource Inc., Camarillo, Calif., USA).
It has previously been shown that reduced migratory ability of various invasive breast tumor cells, including MDA-MB231, Hs578T (Payne S L, Fogelgren B, Hess A R, Seftor E A, Fong S F T, Csiszar K, Hendrix M J C, and Kirschmann D A. Lysyl oxidase regulates breast cancer cell migration and adhesion through a hydrogen peroxide-mediated mechanism. Cancer Res. 65:11429-36, 2005), and astrocytoma cells (Laczko R, Szauter K M, Jansen M K, Hollosi P, Muranyi M, Molnar J, Fong K S K, Hinek A, Csiszar K. Active lysyl oxidase (LOX) correlates with FAK/paxillin activation and migration in invasive astrocytes. Neuropathol Appl Neurobiol. 33:631-43, 2007) was due to reduced activation of Focal Adhesion Kinase (FAK) and diminished SRC and/or Paxillin signaling. In order to determine the status of FAK activation in Formula I(n) treated cells, the phosphorylation status of FAK[Tyr576] in Hs578T cells treated with 5 and 10 μl Formula I(n) was analyzed.
In these experiments, Hs578T cells were cultured in standard DMEM, 1× Antibiotics and 10% FBS. […]

SMILES: CCCCC/C=C\C/C=C\CCCCCCCc1ccco1 [2-(8Z, 11Z-heptadecadienyl)furan, 2-(8Z,11Z-heptadecadienyl)furan]
- activity against silkworm larvae (silkworm larvae, B. mori): no activity

SMILES: C=CCCCCCCCCCCCc1ccco1 [2-(trideca-12-enyl)furan]
- growth of bacteria [1]: inhibited growth
- growth of bacteria [2]: inhibited growth

SMILES: CCCCC/C=C\C/C=C\CCCCCCCc1ccco1 [Formula I(n)]
- tumor cell migration [3]: significantly inhibited
- tumor cell migration [4]: significantly inhibited
- migration of fibroblasts (distance between the migrating lips) ([5]; 5 or 10 μl/10 ml Formula I(n), 12 and 24 hours after scratching, serum free media): reduced migration
- migration of fibroblasts (distance between the migrating lips) ([5]; higher Formula I(n) concentration (10 μl/10 ml)): almost completely diminished
- filopodia [6]: numerous filopodia
- staining at adhesion sites [6]: reduced staining
- staining intensity of the actin cytoskeleton [6]: concentration dependent increase
- tumor cell morphology ([7]; 5 or 10 μl Formula I(n)): elongated, spindle shaped
- cell densities (tumor cell proliferation) ([7]; both Formula I(n) concentrations, both stages of cell confluency): significantly reduced
- FAK[Tyr576] phosphorylation [8]: concentration dependent decrease
